The results in this text go back to patent US20260274891A1, “¿ OPIOID RECEPTOR AGONIST AND USE THEREOF” (CHENGDU AODA BIOTECHNOLOGY CO., LTD., priority 2023, published 2026).

For this test, the target named is T1, human κ opioid receptor (OPRK1) (Homo sapiens, UniProt P41145).
T1 construct: expressed in transfected cells; host or cells: CHO-K1
The experiment in a line: Determination of activities of κ receptor agonists: inhibition of forskolin-stimulated cAMP release (HTRF) in stably transfected CHO-K1 cells. It is filed as cell-based. The settings on record: for Relative Activity %: relative to Difelikefalin = 100.0. From the text: Gi-coupled human κ opioid receptor (OPRK1), upon stimulation with its specific opioid receptor agonists, can inhibit the intracellular adenylate cyclase pathway, and decrease cAMP levels. Forskolin can stimulate cAMP release in cell lines highly expressing opioid receptors. By stimulating cell lines stably transfected with opioid receptors, the inhibitory effect of a test compound on forskolin-stimulated cAMP release can be measured to determine the activity of the compound. The relative light units (RLU) from the cells after stimulation with different doses were measured via the homogeneous time-resolved fluorescence technique (HTRF), and the EC50 value of the agonist was subsequently calculated. This activity determination method is a currently commonly used method for determining the activities of opioid receptor agonists at home and abroad.
A CHO-K1 cell line stably expressing opioid receptors was used. Stably transfected cells were stimulated with various concentrations of agonists (under the stimulation of a certain concentration of forskolin). The relative light units from the cells after stimulation with different doses were measured, from which the EC50 value of the agonist was subsequently obtained by calculation.

Molecules are shown by their SMILES. Bridge positions count the residues as written; N and C are the ends. Square brackets hold non-standard residues; d marks the D form. Side chains are listed from the residue outwards. Peptide text beside a SMILES is read from it. I, II: the chains in the order shown. * marks the point of attachment. X3 = NCCCC[C@@H](NC(=O)[C@@H](CCCCN)NC(=O)C1(N)CCN(*)CC1)C(=O)O; X21 = NCCCC[C@H](NC(=O)[C@H](CCCCN)NC(=O)C1(N)CCN(*)CC1)C(N)=O; X28 = NCCCC[C@H](NC(=O)[C@H](CCCCN)NC(=O)C1(N)CCN(*)CC1)C(=O)O; X12 = CCOc1ccc(C[C@@H](NC(=O)[C@H](N)Cc2ccccc2)C(=O)*)cc1; X5 = NCCCC[C@@H](NC(=O)CNC(=O)C1(N)CCN(*)CC1)C(N)=O; Piperidinyl(4-NH2,4-CONH2) = NC(=O)C1(N)CCN(*)CC1; X10 = NCCCC[C@@H](NC(=O)C1(N)CCN(*)CC1)C(=O)O; X4 = NCCCC[C@H](NC(=O)C1(N)CCN(*)CC1)C(=O)O; X6 = NCCCC[C@H](NC(=O)C1(N)CCN(*)CC1)C(N)=O; Api = NC1(C(=O)O)CCNCC1

T1 sequence (P41145 whole entry): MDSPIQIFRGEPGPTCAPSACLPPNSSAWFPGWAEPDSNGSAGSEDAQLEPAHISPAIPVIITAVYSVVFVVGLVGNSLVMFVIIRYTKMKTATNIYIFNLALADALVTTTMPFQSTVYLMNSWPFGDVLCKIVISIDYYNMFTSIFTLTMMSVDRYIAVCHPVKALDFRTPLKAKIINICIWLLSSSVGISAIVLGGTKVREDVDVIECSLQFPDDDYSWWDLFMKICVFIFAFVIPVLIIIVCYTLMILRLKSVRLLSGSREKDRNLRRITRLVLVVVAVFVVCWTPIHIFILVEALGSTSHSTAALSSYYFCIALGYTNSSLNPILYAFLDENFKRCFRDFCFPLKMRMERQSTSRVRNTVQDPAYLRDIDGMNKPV

For `CCOc1ccc(C[C@@H](NC(=O)[C@H](N)Cc2ccccc2)C(=O)N[C@H](CC(C)C)C(=O)N[C@H](CCCCN)C(=O)N2CCC(N)(C(N)=O)CC2)cc1` [Compound 1, D-Phe-D-Tyr(Et)-D-Leu-D-Lys-4-aminopiperidine-4-carboxylicacid-NH2] (H-[dF][dY](Et)[dL][dK]-{Piperidinyl(4-NH2,4-CONH2)}; N-terminus assumed), a half-maximal response (EC50) required 0.116 nM and the “Relative Activity %” value is given as 524.8%.
For `CCOc1ccc(C[C@@H](NC(=O)[C@H](N)Cc2ccccc2)C(=O)N[C@H](CC(C)C)C(=O)N[C@H](CCCCN)C(=O)N2CCC(N)(C(=O)N[C@@H](CCCCN)C(N)=O)CC2)cc1` [Compound 3, D-Phe-D-Tyr(Et)-D-Leu-D-Lys-4-aminopiperidine-4-carboxamide-Lys-NH2] (H-[dF][dY](Et)[dL][dK]-X6; N-terminus assumed), the EC50 (usually the midpoint of the concentration-response curve) stood at 0.0394 nM and the “Relative Activity %” value is listed as 1541.1%.
For `CCOc1ccc(C[C@@H](NC(=O)[C@H](N)Cc2ccccc2)C(=O)N[C@H](CC(C)C)C(=O)N[C@H](CCCCN)C(=O)N2CCC(N)(C(=O)N[C@@H](CCCCN)C(=O)O)CC2)cc1` [Compound 4, D-Phe-D-Tyr(Et)-D-Leu-D-Lys-4-aminopiperidine-4-carboxamide-Lys-OH] (H-[dF][dY](Et)[dL][dK]-X4; N-terminus assumed), in that order: 0.0399 nM and 1521.8%.
For `CCOc1ccc(C[C@@H](NC(=O)[C@H](N)Cc2ccccc2)C(=O)N[C@H](CC(C)C)C(=O)N[C@H](CCCCN)C(=O)N2CCC(N)(C(=O)N[C@@H](CCCCN)C(=O)N[C@@H](CCCCN)C(N)=O)CC2)cc1` [Compound 5, D-Phe-D-Tyr(Et)-D-Leu-D-Lys-4-aminopiperidine-4-carboxamide-Lys-Lys-NH2] (H-[dF][dY](Et)[dL][dK]-X21; N-terminus assumed), in that order: 0.041 nM and 1481.0%.
Taken in the same sequence, the figures for `CCOc1ccc(C[C@@H](NC(=O)[C@H](N)Cc2ccccc2)C(=O)N[C@H](CC(C)C)C(=O)N[C@H](CCCCN)C(=O)N2CCC(N)(C(=O)N[C@@H](CCCCN)C(=O)N[C@@H](CCCCN)C(=O)O)CC2)cc1` [Compound 6, D-Phe-D-Tyr(Et)-D-Leu-D-Lys-4-aminopiperidine-4-carboxamide-Lys-Lys-OH] (H-[dF][dY](Et)[dL][dK]-X28; N-terminus assumed) were 0.0402 nM and 1510.4%.
`CCOc1ccc(C[C@@H](NC(=O)[C@H](N)Cc2ccccc2)C(=O)N[C@H](CC(C)C)C(=O)N[C@H](CCCCN)C(=O)N2CCC(N)(C(=O)N[C@@H](CCCCN)C(=O)N[C@@H](CCCCN)C(=O)N[C@@H](CCCCN)C(=O)N[C@@H](CCCCN)C(=O)O)CC2)cc1` [Compound 10, D-Phe-D-Tyr(Et)-D-Leu-D-Lys-4-aminopiperidine-4-carboxamide-Lys-Lys-Lys-Lys-OH] (H-[Api]([dK-dL-X12])KKKK-OH; N-terminus assumed): the EC50 came out at 0.0463 nM and the “Relative Activity %” value is listed as 1311.4%.
In the case of `CCOc1ccc(C[C@@H](NC(=O)[C@H](N)Cc2ccccc2)C(=O)N[C@H](CC(C)C)C(=O)N[C@H](CCCCN)C(=O)N2CCC(N)(C(=O)N[C@@H](CCCCN)C(=O)N[C@@H](CCCCN)C(=O)N[C@@H](CCCCN)C(=O)N[C@@H](CCCCN)C(=O)N[C@@H](CCCCN)C(N)=O)CC2)cc1` [Compound 11, D-Phe-D-Tyr(Et)-D-Leu-D-Lys-4-aminopiperidine-4-carboxamide-Lys-Lys-Lys-Lys-Lys-NH2] (H-[Api]([dK-dL-X12])KKKKK-NH2; N-terminus assumed), the EC50 turned out to be 0.0534 nM and the “Relative Activity %” value is listed as 1137.1%.
Taken in the same sequence, the figures for `CCOc1ccc(C[C@@H](NC(=O)[C@H](N)Cc2ccccc2)C(=O)N[C@H](CC(C)C)C(=O)N[C@H](CCCCN)C(=O)N2CCC(N)(C(=O)N[C@@H](CCCCN)C(=O)N[C@@H](CCCCN)C(=O)N[C@@H](CCCCN)C(=O)N[C@@H](CCCCN)C(=O)N[C@@H](CCCCN)C(=O)N[C@@H](CCCCN)C(=O)O)CC2)cc1` [Compound 14, D-Phe-D-Tyr(Et)-D-Leu-D-Lys-4-aminopiperidine-4-carboxamide-Lys-Lys-Lys-Lys-Lys-Lys-OH] (H-[Api]([dK-dL-X12])KKKKKK-OH; N-terminus assumed) were 0.0655 nM and 927.0%.
Taken in the same sequence, the figures for `CCOc1ccc(C[C@@H](NC(=O)[C@H](N)Cc2ccccc2)C(=O)N[C@H](CC(C)C)C(=O)N[C@H](CCCCN)C(=O)N2CCC(N)(C(=O)N[C@H](CCCCN)C(=O)O)CC2)cc1` [Compound 16, D-Phe-D-Tyr(Et)-D-Leu-D-Lys-4-aminopiperidine-4-carboxamide-D-Lys-OH] (H-[dF][dY](Et)[dL][dK]-X10; N-terminus assumed) were 0.0431 nM and 1408.8%.
For `CCOc1ccc(C[C@@H](NC(=O)[C@H](N)Cc2ccccc2)C(=O)N[C@H](CC(C)C)C(=O)N[C@H](CCCCN)C(=O)N2CCC(N)(C(=O)N[C@H](CCCCN)C(=O)N[C@H](CCCCN)C(=O)O)CC2)cc1` [Compound 18, D-Phe-D-Tyr(Et)-D-Leu-D-Lys-4-aminopiperidine-4-carboxamide-D-Lys-D-Lys-OH] (H-[dF][dY](Et)[dL][dK]-X3; N-terminus assumed), the midpoint of the response, the EC50, lay at 0.046 nM and the “Relative Activity %” value was 1320.0%.
Taken in the same sequence, the figures for `CCOc1ccc(C[C@@H](NC(=O)[C@H](N)Cc2ccccc2)C(=O)N[C@H](CC(C)C)C(=O)N[C@H](CCCCN)C(=O)N2CCC(N)(C(=O)N[C@H](CCCCN)C(=O)N[C@H](CCCCN)C(=O)N[C@H](CCCCN)C(N)=O)CC2)cc1` [Compound 19, D-Phe-D-Tyr(Et)-D-Leu-D-Lys-4-aminopiperidine-4-carboxamide-D-Lys-D-Lys-D-Lys-NH2] (I: H-[Api][dK][dK][dK]-NH2 / II: H-[dF][dY](Et)[dL][dK]; amide I:1-II:C; N-terminus assumed) were 0.0479 nM and 1267.6%.
`CCOc1ccc(C[C@@H](NC(=O)[C@H](N)Cc2ccccc2)C(=O)N[C@H](CC(C)C)C(=O)N[C@H](CCCCN)C(=O)N2CCC(N)(C(=O)N[C@H](CCCCN)C(=O)N[C@H](CCCCN)C(=O)N[C@H](CCCCN)C(=O)N[C@H](CCCCN)C(N)=O)CC2)cc1` [Compound 21, D-Phe-D-Tyr(Et)-D-Leu-D-Lys-4-aminopiperidine-4-carboxamide-D-Lys-D-Lys-D-Lys-D-Lys -NH2] (H-[Api]([dK-dL-X12])[dK][dK][dK][dK]-NH2; N-terminus assumed): it took 0.0501 nM to reach a half-maximal effect (EC50) and the “Relative Activity %” value worked out at 1212.0%.
Taken in the same sequence, the figures for `CCOc1ccc(C[C@@H](NC(=O)[C@H](N)Cc2ccccc2)C(=O)N[C@H](CC(C)C)C(=O)N[C@H](CCCCN)C(=O)N2CCC(N)(C(=O)N[C@H](CCCCN)C(=O)N[C@H](CCCCN)C(=O)N[C@H](CCCCN)C(=O)N[C@H](CCCCN)C(=O)N[C@H](CCCCN)C(N)=O)CC2)cc1` [Compound 23, D-Phe-D-Tyr(Et)-D-Leu-D-Lys-4-aminopiperidine-4-carboxamide-D-Lys-D-Lys-D-Lys-D-Lys -D-Lys-NH2] (H-[Api]([dK-dL-X12])[dK][dK][dK][dK][dK]-NH2; N-terminus assumed) were 0.0554 nM and 1096.0%.
For the compound `CCOc1ccc(C[C@@H](NC(=O)[C@H](N)Cc2ccccc2)C(=O)N[C@H](CC(C)C)C(=O)N[C@H](CCCCN)C(=O)N2CCC(N)(C(=O)N[C@H](CCCCN)C(=O)N[C@H](CCCCN)C(=O)N[C@H](CCCCN)C(=O)N[C@H](CCCCN)C(=O)N[C@H](CCCCN)C(=O)N[C@H](CCCCN)C(N)=O)CC2)cc1` [Compound 25, D-Phe-D-Tyr(Et)-D-Leu-D-Lys-4-aminopiperidine-4-carboxamide-D-Lys-D-Lys-D-Lys-D-Lys -D-Lys-D-Lys-NH2] (H-[Api]([dK-dL-X12])[dK][dK][dK][dK][dK][dK]-NH2; N-terminus assumed), the midpoint of the response, the EC50, lay at 0.0684 nM and the “Relative Activity %” value was found to be 887.7%.
Take `CCOc1ccc(C[C@@H](NC(=O)[C@H](N)Cc2ccccc2)C(=O)N[C@H](CC(C)C)C(=O)N[C@H](CCCCN)C(=O)N2CCC(N)(C(=O)NCC(=O)N[C@H](CCCCN)C(N)=O)CC2)cc1` [Compound 49, D-Phe-D-Tyr(Et)-D-Leu-D-Lys-4-aminopiperidine-4-carboxamide-Gly-D-Lys-NH2] (H-[dF][dY](Et)[dL][dK]-X5; N-terminus assumed): the EC50 is 0.0445 nM and the “Relative Activity %” value amounted to 1364.5%.
For `CCOc1ccc(C[C@@H](NC(=O)[C@H](N)Cc2ccccc2)C(=O)N[C@H](CC(C)C)C(=O)N[C@H](CCCCN)C(=O)N2CCC(N)(C(=O)NCC(=O)NCC(=O)N[C@@H](CCCCN)C(N)=O)CC2)cc1` [Compound 51, D-Phe-D-Tyr(Et)-D-Leu-D-Lys-4-aminopiperidine-4-carboxamide-Gly-Gly-Lys-NH2] (I: H-[Api]GGK-NH2 / II: H-[dF][dY](Et)[dL][dK]; amide I:1-II:C; N-terminus assumed), in that order: 0.0477 nM and 1273.0%.
As to `CCOc1ccc(C[C@@H](NC(=O)[C@H](N)Cc2ccccc2)C(=O)N[C@H](CC(C)C)C(=O)N[C@H](CCCCN)C(=O)N2CCC(N)(C(=O)NCC(=O)NCC(=O)N[C@H](CCCCN)C(=O)O)CC2)cc1` [Compound 54, D-Phe-D-Tyr(Et)-D-Leu-D-Lys-4-aminopiperidine-4-carboxamide-Gly-Gly-D-Lys-OH] (I: H-[Api]GG[dK]-OH / II: H-[dF][dY](Et)[dL][dK]; amide I:1-II:C; N-terminus assumed), the EC50 is 0.0471 nM and the “Relative Activity %” value stood at 1289.2%.
